Reference: US9789096B2, “Methods and compositions for selective and targeted cancer therapy” (Board of Regents of the University of Texas System, priority 2013, dated 2017)
pIC50: −log10 of the molar value. Where two headings read alike, the source gives them in different places.

Key:
HBEC30KT = experiment: Cell viability (ATP, Cell Titer Glo, 4 days), HBEC30KT; assay type: cell-based, human; details: Homo sapiens, Tables 3 and 4; read-out: HBEC30KT IC50
Description: (§1) FIG. 6A. […] Cell viability is plotted vs. compound concentration. Compound was added to cells plated at 15% confluence in 96-well plates in RPMI-1640 media supplemented with 5% Fetal Bovine Serum and 2 mM L-Glutamine. After 4 days of incubation, ATP levels were measured using Cell Titer Glo (Promega). Data are presented as the average of 2 replicates ±SEM.
(§2) Selectivity may be measured by the half maximal inhibitory concentration (IC50), which, as used herein, is a measure of the effectiveness of a compound in killing cells. This quantitative measure indicates how much of a particular compound is needed to kill a particular cell population by half (e.g., as indicated by the amount of ATP). […] The IC50 can be determined by constructing a dose-response curve. The lower the IC50, the higher the potency, and the greater the difference between IC50 values for different cell lines (e.g., sensitive lines vs. insensitive lines, and sensitive lines vs. normal lines) the greater the selectivity. […]

H2009 = experiment: Cell viability dose-response, H2009; assay type: cell-based, human; details: Homo sapiens, NCI-H2009; Tables 3 and 4; read-out: IC50 (uM) vs indicated non-small cell lung cancer cell line H2009
Method in brief: (§3)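 Read-out is total cellular ATP, measured with CellTiter-Glo after four days of compound treatment. Cells start at 15% confluence in RPMI-1640 containing 5% FBS and 2 mM L-glutamine. Each point averages two replicates (±SEM).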

H2073 = experiment: Cell viability dose-response, H2073; assay type: cell-based, human; details: Homo sapiens, NCI-H2073, Tables 3 and 4; read-out: IC50 (uM) vs indicated non-small cell lung cancer cell line H2073
Description: as §1, §2
(§4) With this information, we synthesized and tested a series of small molecules derived in conception from the oxalamide and chromone scaffold including N-acyl ureas, as shown in Tables 6-8. Each compound was tested in a 12-point dose-response study starting at 50 micromolar and decreasing in 3-fold increments to sub-nanomolar concentrations, in duplicate. Additionally, one or more additional cell line was tested in the same way.

H1819 = experiment: Cell viability dose-response, H1819; assay type: cell-based, human; details: Homo sapiens, NCI-H1819, Tables 3 and 4; read-out: IC50 (uM) vs indicated non-small cell lung cancer cell line H1819
Method in brief: (§5)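 Cells plated at 15% confluence in RPMI-1640 with 5% FBS and 2 mM L-glutamine, treated with compound in a 12-point, 3-fold dilution series from 50 micromolar, in duplicate. ATP measured by Cell Titer Glo after 4 days; IC50 taken from the dose-response curve.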

H2122 = experiment: Cell viability dose-response, H2122; assay type: cell-based, human; details: read-out: IC50 (uM) vs indicated non-small cell lung cancer cell line H2122
Method in brief: as §5

H460 = experiment: Cell viability dose-response, H460; assay type: cell-based; details: Homo sapiens, NCI-H460; Tables 3 and 4; read-out: IC50 (uM) vs indicated non-small cell lung cancer cell line H460
Description: as §1, §2, §4

HCC95 = experiment: Cell viability dose-response, HCC95; assay type: cell-based; details: Homo sapiens, Tables 3 and 4, read-out: IC50 (uM) vs indicated non-small cell lung cancer cell line HCC95
Description: as §1, §2, §4

HCC44 = experiment: Cell viability dose-response, HCC44; assay type: cell-based, human; details: read-out: IC50 (uM) vs indicated non-small cell lung cancer cell line HCC44
Method in brief: as §3

HCC4017 = experiment: Cell viability dose-response, HCC4017; assay type: cell-based, human; details: read-out: IC50 (uM) vs indicated non-small cell lung cancer cell line HCC4017
Description: as §1, §2, §4

H1395 = experiment: Cell viability dose-response, H1395; assay type: cell-based; details: Homo sapiens, NCI-H1395; Tables 3 and 4; read-out: IC50 (uM) vs indicated non-small cell lung cancer cell line H1395
Description: as §1, §2, §4

H1993 = experiment: Cell viability dose-response, H1993; assay type: cell-based; details: Homo sapiens, NCI-H1993; Tables 3 and 4; read-out: IC50 (uM) vs indicated non-small cell lung cancer cell line H1993
Description: as §1, §2, §4

H1155 = experiment: Cell viability dose-response, H1155; assay type: cell-based; details: Homo sapiens, NCI-H1155; Tables 3 and 4; read-out: IC50 (uM) vs indicated non-small cell lung cancer cell line H1155
Description: as §1, §2, §4

[1] = Homo sapiens, NCI-H2122, Tables 3 and 4
[2] = Homo sapiens, HCC44, Tables 3 and 4
[3] = Homo sapiens, HCC4017, Tables 3 and 4

In the case of `Nc1ccc2sc(NC(=O)c3ccccc3)nc2c1` [SW202741], the pIC50 (HBEC30KT) was 4.89, the IC50 (H2009) was 8.42 µM and the IC50 (H2073) was 9.79 µM. It also gave an IC50 (H1819) of 11.9 µM and an IC50 (H2122; [1]) of 8.13 µM.
`COc1ccc2nc(NC(=O)c3ccc([N+](=O)[O-])cc3)sc2c1` [SW001282-2] was tested, and the IC50 (H460) was 0.512 µM, the pIC50 (HBEC30KT) was 4.31 and the IC50 (H2009) was 2.81 µM. For the same compound, the IC50 (H2073) was 0.752 µM, the IC50 (HCC95) was 19.6 µM and the IC50 (HCC44; [2]) was 30.1 µM. It also gave an IC50 (H2122; [1]) of 0.159 µM.
`NC(=O)c1c(NC(=O)c2ccc(Br)o2)sc2c1CCCC2` [SW172864] gave an IC50 (H460) of 35.1 µM, an IC50 (HCC4017; [3]) of 1.71 µM and an IC50 (H1395) of 44.5 µM. It also gave a pIC50 (HBEC30KT) of 4.90, an IC50 (H2009) of 3.2 µM and an IC50 (H1993) of 0.871 µM. It also gave an IC50 (H2073) of 0.129 µM, an IC50 (HCC95) of 43.6 µM and an IC50 (HCC44; [2]) of 2.52 µM.
In the case of `O=S(=O)(Nc1nc2ccccc2s1)c1ccc(C(F)(F)F)cc1` [SW202754], the pIC50 (HBEC30KT) was 3.70, the IC50 (H2009) was 32.7 µM and the IC50 (H2073) was 24.8 µM. For the same compound, the IC50 (H1819) was 30.2 µM and the IC50 (H2122; [1]) was 35.4 µM.
With `COc1ccc2nc(NC(=O)c3ccc([N+](=O)[O-])o3)sc2c1` [SW202753] the pIC50 (HBEC30KT) was 4.70, the IC50 (H2009) was 13.4 µM and the IC50 (H2073) was 6.25 µM. For the same compound, the IC50 (H1819) was 18.2 µM and the IC50 (H2122; [1]) was 4.36 µM.
`COc1ccc2nc(NC(=O)c3cccc(C)c3)sc2c1` [SW202744] gave a pIC50 (HBEC30KT) of 4.44, an IC50 (H2009) of 24.8 µM and an IC50 (H2073) of 25.6 µM. It also gave an IC50 (H1819) of 53.5 µM and an IC50 (H2122; [1]) of 1.16 µM.
`O=C(Nc1nc2ccc(F)cc2s1)c1sc2ccccc2c1Cl` [SW147703] showed a pIC50 (HBEC30KT) of 4.48, an IC50 (H2009) of 34.5 µM and an IC50 (H1155) of 13.3 µM. The IC50 (H1993) was 13.5 µM, the IC50 (H2073) was 1.12 µM and the IC50 (HCC95) was 32.4 µM. The IC50 (HCC44; [2]) was 37.5 µM and the IC50 (H2122; [1]) was 3.3 µM.
With `COc1ccc2nc(NC(=O)c3cccnc3)sc2c1` [SW202774-1] the IC50 (H460) was 1.31 µM, the pIC50 (HBEC30KT) was 4.33 and the IC50 (H2009) was 36.6 µM. For the same compound, the IC50 (H1155) was 35.2 µM, the IC50 (H1993) was 25.5 µM and the IC50 (H2073) was 1.34 µM. For the same compound, the IC50 (HCC95) was 0.336 µM, the IC50 (HCC44; [2]) was 1.01 µM and the IC50 (H2122; [1]) was 1.08 µM.
With `COc1ccc(C(=O)Nc2nc3ccc(OC)cc3s2)cc1` [SW202745] the pIC50 (HBEC30KT) was 3.47, the IC50 (H2073) was 2.12 µM and the IC50 (H1819) was 64.3 µM. It also gave an IC50 (H2122; [1]) of 1.09 µM.
Compound `COc1ccc2nc(NC(=O)Cc3ccccc3)sc2c1` [SW202749] has a pIC50 (HBEC30KT) of 3.63, an IC50 (H2009) of 75.2 µM and an IC50 (H2073) of 70.4 µM. For the same compound, the IC50 (H1819) was 57.6 µM and the IC50 (H2122; [1]) was 60.4 µM.
Work on `O=C(Nc1cccc(NC(=O)c2sc3ccccc3c2Cl)c1)c1ccco1` [SW023008-2] yielded an IC50 (HCC4017; [3]) of 809 µM, a pIC50 (HBEC30KT) of 4.08 and an IC50 (HCC44; [2]) of 105 µM. For the same compound, the IC50 (H2122; [1]) was 1.27 µM.
`COc1ccc2nc(NC(=O)c3ccccc3)sc2c1` [SW202743] showed a pIC50 (HBEC30KT) of 4.65, an IC50 (H2009) of 20.6 µM and an IC50 (H2073) of 7.04 µM. It also gave an IC50 (H1819) of 19.8 µM and an IC50 (H2122; [1]) of 0.538 µM.
`O=C(Nc1cccc(F)c1)c1sc2ccccc2c1Cl` [SW202550] was tested, and the IC50 (HCC4017; [3]) was 17.3 µM, the pIC50 (HBEC30KT) was 3.98 and the IC50 (HCC44; [2]) was 0.566 µM. For the same compound, the IC50 (H2122; [1]) was 1.91 µM.
Compound `COc1ccc2sc(NC(=O)c3ccc([N+](=O)[O-])cc3)nc2c1` [SW004969] has an IC50 (H460) of 0.521 µM, an IC50 (H2009) of 5.5 µM and an IC50 (H2073) of 0.658 µM. The IC50 (HCC95) was 0.2 µM and the IC50 (H2122; [1]) was 0.21 µM.
For `Cc1cccc(C(=O)Nc2nc3ccccc3s2)c1` [SW202755], the pIC50 (HBEC30KT) was 3.98, the IC50 (H2009) was 53.9 µM and the IC50 (H2073) was 25.1 µM. It also gave an IC50 (H1819) of 47.8 µM and an IC50 (H2122; [1]) of 0.734 µM.
`O=C(Nc1cccc(NC(=O)c2sc3ccccc3c2Cl)c1)c1cccc(Cl)c1` [SW023441-2] was tested, and the IC50 (HCC4017; Tables 3 and 4) was 46 µM, the pIC50 (HBEC30KT) was 4.50 and the IC50 (HCC44; Tables 3 and 4) was 27.7 µM. For the same compound, the IC50 (H2122; Tables 3 and 4) was 0.473 µM.
In the case of `COc1ccc(C(=O)Nc2nc3cc(N)ccc3s2)cc1` [SW202739], the pIC50 (HBEC30KT) was 3.60, the IC50 (H2009) was 137 µM and the IC50 (H2073) was 126 µM. The IC50 (H1819) was 132 µM and the IC50 (H2122; [1]) was 114 µM.
In the case of `CCN(CC)c1ccc(C(=O)Nc2nc3ccc4ccccc4c3s2)cc1` [SW018825], the IC50 (H1993) was 47.5 µM, the IC50 (H2073) was 0.424 µM and the IC50 (HCC95) was 2.23 µM. It also gave an IC50 (H2122; [1]) of 0.129 µM.
